Laboratory results published in paper PMC7127491 (Bioorganic & Medicinal Chemistry, 2008).
“Also recorded” adds a separate entry of the source.

How the values were obtained:
Format in all cases: cell-based
[1] = tested on: HIV-2; test: Anti-HIV-2 activity, virus-induced cytopathicity in CEM cells
[2] = tested on: HIV-1; test: Anti-HIV-1 activity, virus-induced cytopathicity in CEM cells
[3] = tested on: normal diploid human fibroblasts (WI 38); test: Antiproliferation MTT assay
[4] = tested on: all evaluated tumour cell lines (L1210, Molt4/C8, CEM, HeLa, MCF-7, MiaPaCa-2, SW 620, Hep G2); test: Cytostatic activity over the whole panel of evaluated cell lines; settings: read-out: IC50 range on all the evaluated tumour cell lines
[5] = tested on: influenza A (H3N2); test: microbe, parasite or virus in culture; settings: H3N2, MDCK, read-out: EC50 against influenza A (H3N2)

| Structure (SMILES) | inhibitory activity against HIV-2, in words [1] | inhibitory activity against HIV-1, in words [2] | cytotoxicity to human normal fibroblasts (WI 38), in words [3] | IC50 [4] | EC50 [5] |
| --- | --- | --- | --- | --- | --- |
| O=C1c2ccccc2C(=O)N1C/C=C\Cn1cc(C#Cc2ccc(Br)cc2)c(=O)[nH]c1=O [Compound 4, (Z)-1-[4′-(N-Phthalimido)-2′-butenyl]-5-(p-bromophenylethynyl)uracil] | marginal inhibitory activity | marginal inhibitory activity; also recorded: slight activity |  |  |  |
| CCCCCc1ccc(C#Cc2cn(C/C=C/CN3C(=O)c4ccccc4C3=O)c(=O)[nH]c2=O)cc1 [Compound 14, (E)-1-[4′-(N-Phthalimido)-2′-butenyl]-5-(p-pentylphenylethynyl)uracil] | marginal inhibitory activity; also recorded: moderate activity | marginal inhibitory activity; also recorded: moderate activity | cytotoxic | 4.3 to 39 µM |  |
| CCCCCc1ccc(C#Cc2cn(C/C=C\CN3C(=O)c4ccccc4C3=O)c(=O)[nH]c2=O)cc1 [Compound 7, (Z)-1-[4′-(N-Phthalimido)-2′-butenyl]-5-(p-pentylphenylethynyl)uracil] |  |  | no cytotoxicity |  |  |
| O=C1c2ccccc2C(=O)N1C/C=C\Cn1cc(C#CCCc2ccccc2)c(=O)[nH]c1=O [Compound 3, (Z)-1-[4′-(N-Phthalimido)-2′-butenyl]-5-(4″-phenylbutynyl)uracil] | marginal inhibitory activity | marginal inhibitory activity; also recorded: slight activity |  |  |  |
| CCCCCCCCC#Cc1cn(C/C=C\CN2C(=O)c3ccccc3C2=O)c(=O)[nH]c1=O [Compound 2, (Z)-1-[4′-(N-Phthalimido)-2′-butenyl]-5-decynyluracil] |  |  |  |  | 2.5 to 4 µM |
